From US4859782A (priority 1987, dated 1989)
Converted amounts (≈) assume the structure as drawn. Where two headings read alike, the source gives them in different places.

What was measured:
CV-1 cells = details: for VSV cyt (cytotoxicity): VSV-infected CV-1 cells
[1] = test system: herpes simplex type 1 (HSV-1); format: cell-based
Candida albicans [2] = assay: microbe, parasite or virus in culture; details: read-out: Ca MIC
Saccharomyces cerevisiae = assay: microbe, parasite or virus in culture; details: read-out: Antifungal activity, […]
Penicillium atrovenetum = assay: microbe, parasite or virus in culture; format: cell-based; details: read-out: Antifungal activity, Pa: diameter of the zone of growth inhibition
[3] = test system: vesicular stomatitis virus (VSV); format: cell-based; details: CV-1 cells, 8 μg/well
Candida albicans [4] = assay: microbe, parasite or virus in culture; details: read-out: Antifungal activity, […]

For COC1CC(C)OC(CCC(C)C(O)C(C)C2OC(=O)C(C)=CCC(O)CC3C=CCC(CC(OC)C(C)C(O)CC(O)C(C)C(C(C)C(O)C(C)CCC4CC(OC)CC(C)O4)OC(=O)C(C)=CCC(O)CC4C=CCC(CC(OC)C(C)C(O)CC(O)C2C)O4)O3)C1 (stereo not drawn) [misakinolide, Misakinolide], the “HSV-1 cyt (cytotoxicity)” value (CV-1 cells) was 0, the “VSV cyt (cytotoxicity)” value (CV-1 cells; 4 μg/well) was 0 and the “VSV cyt (cytotoxicity)” value (CV-1 cells; 8 μg/well) was 0. For the same molecule, the “HSV-1 av (antiviral activity)” value [1] was “++ and +”, the MIC (Candida albicans [2]) was 5 µg/mL (≈ 3.74 µM) and the zone of inhibition at 5 µg/disc (Saccharomyces cerevisiae) was 12 mm. The zone of inhibition at 5 µg/disc (Penicillium atrovenetum) was 10 mm, the “VSV av (antiviral activity)” value [3] was “+” and the zone of inhibition at 5 µg/disc (Candida albicans [4]) was 10 mm.
